Experimental findings from patent US20050096350A1, “Halo substituted benzo[b]thiophenes as therapeutic agents” (priority 2003, published 2005) are described below.

For the first assay, the target named is T1, PI3Kγ (purified recombinant p101/p110γ protein) (Homo sapiens, UniProt P48736).
T1 construct: HA; made in house; host or cells: Spodoptera frugiperda Sf9 cells (baculovirus coinfection)
T1 sequence (P48736 whole entry, species assumed): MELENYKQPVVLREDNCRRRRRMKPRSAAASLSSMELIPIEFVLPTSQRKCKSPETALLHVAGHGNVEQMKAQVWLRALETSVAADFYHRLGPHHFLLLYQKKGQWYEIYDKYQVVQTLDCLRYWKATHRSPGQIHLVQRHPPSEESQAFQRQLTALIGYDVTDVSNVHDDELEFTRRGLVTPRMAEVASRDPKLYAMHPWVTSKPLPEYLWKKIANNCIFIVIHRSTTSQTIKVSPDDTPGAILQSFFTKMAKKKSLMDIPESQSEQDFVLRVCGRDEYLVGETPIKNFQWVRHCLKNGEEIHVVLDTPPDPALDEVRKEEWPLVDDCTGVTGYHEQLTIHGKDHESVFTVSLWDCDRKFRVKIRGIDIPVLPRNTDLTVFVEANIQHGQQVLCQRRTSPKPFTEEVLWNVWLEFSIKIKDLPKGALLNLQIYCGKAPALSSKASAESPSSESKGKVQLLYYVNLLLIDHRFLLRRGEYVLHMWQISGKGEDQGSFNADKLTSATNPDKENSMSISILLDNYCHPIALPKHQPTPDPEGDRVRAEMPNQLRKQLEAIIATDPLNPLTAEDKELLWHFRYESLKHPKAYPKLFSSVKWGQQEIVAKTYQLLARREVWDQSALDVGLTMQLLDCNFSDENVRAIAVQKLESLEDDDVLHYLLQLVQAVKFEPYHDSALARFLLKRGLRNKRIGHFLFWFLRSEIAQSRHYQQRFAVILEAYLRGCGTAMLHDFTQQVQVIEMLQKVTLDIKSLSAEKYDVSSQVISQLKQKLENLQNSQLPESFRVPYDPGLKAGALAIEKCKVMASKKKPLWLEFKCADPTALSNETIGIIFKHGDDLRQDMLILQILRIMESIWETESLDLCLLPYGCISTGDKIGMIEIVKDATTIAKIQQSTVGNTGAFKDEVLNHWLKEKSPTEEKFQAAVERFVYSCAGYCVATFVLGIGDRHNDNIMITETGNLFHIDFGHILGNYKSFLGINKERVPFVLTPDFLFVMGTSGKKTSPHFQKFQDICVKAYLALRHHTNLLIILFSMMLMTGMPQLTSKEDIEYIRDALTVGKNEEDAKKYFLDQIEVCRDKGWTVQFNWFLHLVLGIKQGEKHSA
T1 sequence (Q8WYR1 whole entry partner, species assumed): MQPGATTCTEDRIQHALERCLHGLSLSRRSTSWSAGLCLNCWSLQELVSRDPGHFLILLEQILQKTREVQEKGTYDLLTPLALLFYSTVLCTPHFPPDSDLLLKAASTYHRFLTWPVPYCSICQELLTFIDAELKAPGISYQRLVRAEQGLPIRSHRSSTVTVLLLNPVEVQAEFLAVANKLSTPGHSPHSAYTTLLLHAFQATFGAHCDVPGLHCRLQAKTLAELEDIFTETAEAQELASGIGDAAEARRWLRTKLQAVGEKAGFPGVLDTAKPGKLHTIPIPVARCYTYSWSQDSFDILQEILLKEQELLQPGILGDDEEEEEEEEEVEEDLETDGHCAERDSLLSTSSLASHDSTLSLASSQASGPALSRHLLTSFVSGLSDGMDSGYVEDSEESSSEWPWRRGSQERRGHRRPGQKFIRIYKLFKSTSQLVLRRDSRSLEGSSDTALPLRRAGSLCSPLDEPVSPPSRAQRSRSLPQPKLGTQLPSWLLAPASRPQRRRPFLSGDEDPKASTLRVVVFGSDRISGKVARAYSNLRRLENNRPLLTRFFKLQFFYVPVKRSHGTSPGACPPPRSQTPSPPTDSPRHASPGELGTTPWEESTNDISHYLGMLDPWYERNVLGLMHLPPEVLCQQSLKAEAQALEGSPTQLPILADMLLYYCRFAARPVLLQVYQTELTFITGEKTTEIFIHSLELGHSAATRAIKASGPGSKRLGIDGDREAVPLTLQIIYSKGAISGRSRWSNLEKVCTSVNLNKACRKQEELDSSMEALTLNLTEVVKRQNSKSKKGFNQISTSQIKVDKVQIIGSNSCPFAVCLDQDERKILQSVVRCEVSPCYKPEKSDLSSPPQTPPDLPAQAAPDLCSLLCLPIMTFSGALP
The experiment in a line: PI3Kγ in vitro kinase assay. The assay is classed as biochemical. The settings on record: 20 μM ATP, 25 μM PIP2, G protein β1/γ2 subunits. On the procedure:
Spodtera frugiperda cells, grown in ESF921 media, were coinfected with baculovirus expressing a glu-tagged p101 and baculovirus expressing an HA-tagged […], at a 3:1 ratio of p101 baculovirus to p110γ baculovirus. Sf9 cells were grown to 1×10^7 total cells/mL in 10 L bioreactors and harvested 48-72 hours post infection. Samples of infected cells were then tested for expression of p101/p110γ PI3 kinase by immunoprecipitation and Western Blot analysis methods (see below).
To purify PI3Kγ, 4 volumes of room temperature hypotonic lysis buffer (1 mM MgCl2, 1 mM DTT, 5 mM EGTA, 1 mM Pefabloc, 0.5 μM aprotinin, 5 μM leupeptin, 2 μM pepstatin, 5 μM E64, pH 8) per gram of cell paste, was poured onto frozen cell pellets with stirring, then lysed in a nitrogen “bomb” at 400 psi (599HC T316, Parr Instrument Co, Moline, Ill.). NaCl was added to 150 mM, and sodium cholate was added to 1% and mixed for another 45 minutes. The lysates were clarified by centrifugation for 25 minutes at 14,000 rpm. The lysates were then loaded over anti-glu-linked Protein-G Sepaharose beads (Covance Research Products, Richmond, Calif.) using 20 mL resin/50 g cell paste. The column was washed with 15 volumes of wash buffer (1 mM DTT, 0.2 mM EGTA, 1 mM Pefabloc, 0.5 μM aprotinin, 5 μM leupeptin, 2 μM pepstatin, 5 μM E64, 150 mM NaCl, 1% sodium cholate, pH 8). PI3Kγ was eluted with 6 column volumes of wash buffer that contain 100 μg/mL of a peptide that competes for binding of the glu tag. The column fractions with the eluted protein (determined by taking OD280 readings) were collected and dialyzed in 0.2 mM EGTA, 1 mM DTT, 1 mM Pefabloc, 5 μM leupeptin, 0.5% sodium cholate, 150 mM NaCl, and 50% glycerol, pH 8. The fractions were stored at −80° C. until further use.
Spodtera frugiperda cells were coinfected with baculovirus expressing a glu-tagged G protein β1 and baculovirus expressing a G protein β2, at a 1:1 ratio of glu-tagged G protein β1 baculovirus to G protein β2 baculovirus. Sf9 cells are grown in 10 L bioreactors and harvested 48-72 hours post infection. Samples of infected cells were tested for G protein β1/β2 expression by Western Blot analysis, as described below. Cell lysates were homogenized and loaded onto a column of glu-tagged beads as in Biological Example 1 and competed off the column with a glu peptide and processed as described in Biological Example 1.
The inhibitory properties of the compounds in Table 1 were assayed in an in vitro PI3K assay. In a 96-well polypropylene plate, each well was spotted with 2 μL of 50 times the desired final concentration of compound in DMSO. Purified recombinant p101/p110γ protein (0.03 μg; ˜2.7 nM) and G protein β1/γ2 subunits (0.09 μg; ˜57.7 nM) for each reaction was combined in the assay buffer (30 mM HEPES, 100 mM NaCl, 1 mM EGTA, and 1 mM DTT). ATP and [γ-^32P-ATP] (0.09 μCi) were added to this mixture so that the final ATP concentration in the reaction was 20 μM. Lipid micelles were formed by sonicating phosphatidylinositol-4,5-diphosphate (PIP2), phosphatidylethanolamine (PE), and Na-cholate in the assay buffer for 10 minutes, adding MgCl2 and incubating on ice for 20 minutes, for final concentrations of 25 μM PIP2, 300 μM PE, 0.02% Na-cholate, and 10 mM MgCl2 in the reaction. The reactions were started by adding equal volumes lipid and enzyme mixture in a total volume of 50 μL, allowed to run for 20 minutes at room temperature, and stopped with 100 μL 75 mM H3PO4. The lipid product was transferred to a glass fiber filter plate and washed with 75 mM H3PO4 several times. The presence of radioactive lipid product (PIP3) was measured by adding Wallac Optiphase mix to each well and counting in a Wallac 1450 Trilux plate reader (PerkinElmer Life Sciences Inc., Boston, Mass. 02118). The IC50 for each compound tested is reported in μM in the Tables above.
`COc1cc2c(OC3CC(C)CC(C)(C)C3)c(C(=O)Nc3nn[nH]n3)sc2cc1F` (stereo not shown) [Example 12, 6-Fluoro-5-methoxy-3-(3,3,5-trimethyl-cyclohexyloxy)-benzo[b]thiophene-2-carboxylic acid (2H-tetrazol-5-yl)-amide]: the IC50 (usually the concentration that inhibits the measured activity by half) stood at 0.0053 µM.

With “3-(4-Cyclohexyl-phenylsulfanyl)-4-fluoro-5-methoxy-benzo[b]thiophene-2-carboxylic acid (1H-tetrazol-5-yl)-amide [Example 37]”, the IC50 was determined as 0.505 µM.

For `COc1cc2c(OC3CCCCC3)c(C(=O)Nc3nn[nH]n3)sc2cc1F` [Example 7, 3-Cyclohexyloxy-6-fluoro-5-methoxy-benzo[b]thiophene-2-carboxylic acid (2H-tetrazol-5-yl)-amide], the IC50 turned out to be 0.0105 µM.

For “4-Fluoro-5-methoxy-3-(3-trifluoromethyl-phenylsulfanyl)-benzo[b]thiophene-2-carboxylic acid (1H-tetrazol-5-yl)-amide [Example 29]”, the IC50 stood at 11 µM.

Consider “3-[2-(Acetyl-methyl-amino)-1-phenyl-propylsulfanyl]-4-fluoro-5-methoxy-benzo[b]thiophene-2-carboxylic acid (1H-tetrazol-5-yl)-amide [Example 30]”, for which the IC50 amounted to 20 µM.

In the case of `COc1cc2c(OC3CC(C)CC(C)C3)c(C(=O)Nc3nn[nH]n3)sc2cc1F` (stereo not shown) [Example 15, 3-(3,5-Dimethyl-cyclohexyloxy)-6-fluoro-5-methoxy-benzo[b]thiophene-2-carboxylic acid (2H-tetrazol-5-yl)-amide], the IC50 is 0.0022 µM.

With `COc1cc2c(Oc3ccc(C4CCCCC4)cc3)c(C(=O)Nc3nn[nH]n3)sc2cc1F` [Example 4, 3-(4-Cyclohexyl-phenoxy)-6-fluoro-5-methoxy-benzo[b]thiophene-2-carboxylic acid (2H-tetrazol-5-yl)-amide], the half-inhibitory concentration (IC50) came to 0.0335 µM.

`COc1ccc2sc(C(=O)Nc3nnn[nH]3)c(SC3CCCC3)c2c1F` [Example 38, 3-Cyclopentylsulfanyl-4-fluoro-5-methoxy-benzo[b]thiophene-2-carboxylic acid (1H-tetrazol-5-yl)-amide]: the IC50 was found to be 0.19 µM.

As for `COC(=O)Cc1ccc(Sc2c(C(=O)Nc3nnn[nH]3)sc3ccc(OC)c(F)c23)cc1` [Example 27, {4-[4-Fluoro-5-methoxy-2-(1H-tetrazol-5-ylcarbamoyl)-benzo[b]thiophen-3-ylsulfanyl]-phenyl}-acetic acid methyl ester], the IC50 amounted to 14.2 µM.

As to `COc1ccc2sc(C(=O)Nc3nnn[nH]3)c(Sc3cccc(O)c3)c2c1F` [Example 23, 4-Fluoro-3-(3-hydroxy-phenylsulfanyl)-5-methoxy-benzo[b]thiophene-2-carboxylic acid (1H-tetrazol-5-yl)-amide], the IC50 turned out to be 3.64 µM.

“6-Fluoro-5-methoxy-3-phenoxy-benzo[b]thiophene-2-carboxylic acid iminomethyl-amide [Example 3]”: the IC50 turned out to be 0.0245 µM.

`COc1cc2c(Oc3ccc(Cl)cc3)c(C(=O)Nc3nn[nH]n3)sc2cc1F` [Example 1, 3-(4-Chloro-phenoxy)-6-fluoro-5-methoxy-benzo[b]thiophene-2-carboxylic acid (2H-tetrazol-5-yl)-amide]: the half-inhibitory concentration (IC50) turned out to be 0.0765 µM.

Turning to `COc1ccc2sc(C(=O)Nc3nnn[nH]3)c(Sc3ccc(C(=O)O)cc3)c2c1F` [Example 34, 4-[4-Fluoro-5-methoxy-2-(1H-tetrazol-5-ylcarbamoyl)-benzo[b]thiophen-3-ylsulfanyl]-benzoic acid], the IC50 stood at 5.95 µM.

As for `COC(=O)CCc1ccc(Sc2c(C(=O)Nc3nnn[nH]3)sc3ccc(OC)c(F)c23)cc1` [Example 28, 3-{4-[4-Fluoro-5-methoxy-2-(1H-tetrazol-5-ylcarbamoyl)-benzo[b]thiophen-3-ylsulfanyl]-phenyl}-propionic acid methyl ester], the IC50 was 14.9 µM.

Regarding `COc1cc2c(O[C@H]3CCC[C@@H](C)C3)c(C(=O)Nc3nn[nH]n3)sc2cc1F` (racemic) [Example 9, cis-(±)-6-Fluoro-5-methoxy-3-(3-methyl-cyclohexyloxy)-benzo[b]thiophene-2-carboxylic acid (2H-tetrazol-5-yl)-amide], the IC50 was 0.0038 µM.

As to `COc1ccc2sc(C(=O)Nc3nnn[nH]3)c(Sc3cccc(Cl)c3)c2c1F` [Example 31, 3-(3-Chloro-phenylsulfanyl)-4-fluoro-5-methoxy-benzo[b]thiophene-2-carboxylic acid (1H-tetrazol-5-yl)-amide], the half-inhibitory concentration (IC50) turned out to be 5.87 µM.

Take `COc1cc2c(Oc3ccc(OC4CCCC4)cc3)c(C(=O)Nc3nn[nH]n3)sc2cc1F` [Example 2, 3-(4-Cyclopentyloxy-phenoxy)-6-fluoro-5-methoxy-benzo[b]thiophene-2-carboxylic acid (2H-tetrazol-5-yl)-amide]: the IC50 amounted to 0.015 µM.

As for `COc1ccc2sc(C(=O)Nc3nnn[nH]3)c(SC3CCCCC3)c2c1F` [Example 21, 3-Cyclohexylsulfanyl-4-fluoro-5-methoxy-benzo[b]thiophene-2-carboxylic acid (1H-tetrazol-5-yl)-amide], the IC50 was found to be 0.58 µM.

For the compound `COc1cc2c(OC3CCCC(C)(C)C3)c(C(=O)Nc3nn[nH]n3)sc2cc1F` (stereo not shown) [Example 13, 3-(3,3-Dimethyl-cyclohexyloxy)-6-fluoro-5-methoxy-benzo[b]thiophene-2-carboxylic acid (2H-tetrazol-5-yl)-amide], the IC50 was found to be 0.0065 µM.

With `COc1cccc(Sc2c(C(=O)Nc3nnn[nH]3)sc3ccc(OC)c(F)c23)c1` [Example 32, 4-Fluoro-5-methoxy-3-(3-methoxy-phenylsulfanyl)-benzo[b]thiophene-2-carboxylic acid (1H-tetrazol-5-yl)-amide], the concentration for half-maximal inhibition (IC50) came to 5.94 µM.

Still in this assay, the particulars now being: 20 μM ATP, 25 μM PIP2, G protein β1/γ2 subunits, table b197.
On to `COc1cc2c(O[C@H]3CCC[C@H](C)C3)c(C(=O)Nc3nn[nH]n3)sc2cc1F` (racemic) [Example 17, trans-(±)-6-Fluoro-5-methoxy-3-(3-methyl-cyclohexyloxy)-benzo[b]thiophene-2-carboxylic acid (2H-tetrazol-5-yl)-amide], for which the IC50 was found to be 0.035 µM.

The same assay, now with this note: 20 μM ATP, 25 μM PIP2, G protein β1/γ2 subunits, table b284.
As for `COc1ccc2c(SC3CCCC3)c(C(=O)Nc3nnn[nH]3)sc2c1F` [Example 39, 3-Cyclopentylsulfanyl-7-fluoro-6-methoxy-benzo[b]thiophene-2-carboxylic acid (1H-tetrazol-5-yl)-amide], the IC50 was 0.016 µM.

The same assay, now with this note: 20 μM ATP, 25 μM PIP2, G protein β1/γ2 subunits, table b291.
Regarding “3-Cyclohexylsulfanyl-6-fluoro-5-methyl-benzo[b]thiophene-2-carboxylic acid (1H-tetrazol-5-yl)-amide [Example 41]”, the IC50 came to 0.012 µM.

The same assay, now with this note: 20 μM ATP, 25 μM PIP2, G protein β1/γ2 subunits, table b298.
With `COc1cc2c(Oc3ccc(C4CCCCC4)cc3)c(C(=O)Nc3nn[nH]n3)sc2cc1Cl` [Example 44, 6-Chloro-3-(4-Cyclohexyl-phenoxy)-5-methoxy-benzo[b]thiophene-2-carboxylic acid (2H-tetrazol-5-yl)-amide], the IC50 stood at 0.11 µM.

Consider `COc1cc2c(Oc3ccc(C4CCCCC4)cc3)c(C(=O)Nc3nn[nH]n3)sc2cc1Br` [Example 43, 6-Bromo-3-(4-Cyclohexyl-phenoxy)-5-methoxy-benzo[b]thiophene-2-carboxylic acid (2H-tetrazol-5-yl)-amide], for which the half-maximal inhibitory concentration (IC50) is 0.38 µM.
